“Also recorded” adds a separate entry of the source. Like-named read-outs stand apart in the source and are kept apart here. Marks after values point to notes of the source that are not given here.
Columns and labels:
[1] = test system: patients with Alagille syndrome (ALGS); assay: Pooled ASSERT and ASSERT-EXT: hepatic parameters (ALT, AST, GGT, total bilirubin); assay type: in vivo, human
Procedure: In the completed 24-week ASSERT study, patients with ALGS with history of significant pruritus and elevated serum BAs were randomized 2:1 to once-daily odevixibat 120 μg/kg or placebo, respectively. Patients who completed ASSERT could enter ASSERT-EXT, an ongoing, 72-week open-label extension study in which all patients receive odevixibat 120 μg/kg/day. This pooled analysis included all odevixibat-treated patients from ASSERT and/or ASSERT-EXT and spans from patients' first dose of odevixibat to a data cut-off of Sep. 9, 2022. Assessments over up to 36 weeks of treatment included change in observer-reported scratching scores and sleep parameters, as well as levels of serum BAs, autotaxin (a proposed meditator of pruritus), and 7 alpha-hydroxy-4-cholesten-3-one (C4; a marker of bile acid synthesis). Safety evaluations included assessment of alanine aminotransferase (ALT), total bilirubin, and treatment-emergent adverse events (TEAEs).
Patients who completed ASSERT could enter ASSERT-EXT, an ongoing 72-week extension study in which all patients received odevixibat 120 μg/kg/day. This pooled analysis spans from patients' first dose of odevixibat in ASSERT and/or ASSERT-EXT to a data cutoff at the end of the 72 week period; data from patients who received placebo in ASSERT are also presented for comparison. In both studies, laboratory assessments included measurement of serum alanine transaminase (ALT), Aspartate transaminase (AST), Gamma-glutamyltransferase (GGT), and total bilirubin levels. Caregivers rated patient pruritus using the PRUCISION™ instrument.

[2] = test system: pediatric patient with genetic confirmation of ALGS
From the text: The ileal bile acid transporter (IBAT) is a regulator of the enterohepatic bile acid circulation (Karpen et al.). Given the central feature of cholestasis in ALGS and the role of IBAT in bile acid homeostasis, IBAT inhibitors may help alleviate symptoms of ALGS. The IBAT inhibitor odevixibat is indicated for treatment of pruritus in patients ≥3 months old with progressive familial intrahepatic cholestasis (PFIC), another pediatric cholestatic liver disease, in the US and for treatment of PFIC in patients aged ≥6 months in the European Union.
The patient was referred to specialist care […]. […] […], a liver biopsy was performed.
During this clinical course, the patient received UDCA (15 mg/kg body weight) and naltrexone (1 mg/kg/day), treatments that were pursued according to German treatment guidelines and following discussions among the care team and with the patient's parents.

[3] = test system: patients with Alagille syndrome (ALGS); assay: ASSERT: fat-soluble vitamin levels, INR and related TEAEs; assay type: in vivo, human
Procedure: Vitamins A, D, E, and international normalized ratio (INR; surrogate for vitamin K) were measured throughout the study. Vitamins A, D, and E were measured at screening and randomization, week 12, and week 24. International normalized ratio (INR; surrogate for vitamin K) was measured at all visits. The following measures were determined: (i) percentage of patients with FSV insufficiency at baseline and week 24, and (ii) shifts from baseline to high or low post-baseline FSV values relative to normal ranges. Treatment-emergent adverse events (TEAEs) of FSV deficiency, TEAEs resulting from new or worsening FSV deficiency refractory to clinically recommended vitamin supplementation, and TEAEs represented any possible sequelae of FSV deficiency were evaluated.

CCCCC1(CCCC)CN(c2ccccc2)c2cc(SC)c(OCC(=O)N[C@@H](C(=O)N[C@@H](CC)C(=O)O)c3ccc(O)cc3)cc2S(=O)(=O)N1 [odevixibat, 1,1-dioxo-3,3-dibutyl-5-phenyl-7-methylthio-8-(N-{(R)-α-[N-((S)-1-carboxypropyl)carbamoyl]-4-hydroxybenzyl}carbamoylmethoxy)-2,3,4,5-tetrahydro-1,2,5-benzothiadiazepine]
ALT, Mean (SD), Change to week 48 ([1]; n=9): 64 (102) U/L | AST, Mean (SD), Change to week 48 ([1]; n=9): 37 (72) U/L | GGT, Mean (SD), Change to week 48 ([1]; n=9): 2 (238) U/L | Total bilirubin, Mean (SD), Change to week 48 ([1]; n=9): −1 (16) μmol/L | ALT, Mean (SD), Change to week 36 ([1]; n=15): 79 (91) U/L | AST, Mean (SD), Change to week 36 ([1]; n=16): 67 (66) U/L | GGT, Mean (SD), Change to week 36 ([1]; n=16): 101 (149) U/L | Total bilirubin, Mean (SD), Change to week 36 ([1]; n=16): 10 (37) μmol/L | ALT, Mean (SD), Change to week 24 ([1]; n=37): 57 (81) U/L | AST, Mean (SD), Change to week 24 ([1]; n=37): 43 (89) U/L | GGT, Mean (SD), Change to week 24 ([1]; n=37): 107 (170) U/L | Total bilirubin, Mean (SD), Change to week 24 ([1]; n=37): −1 (19) μmol/L | AST, Mean (SD), Change to week 12 ([1]; n=42): 36 (67) U/L | ALT, Mean (SD), Change to week 12 ([1]; n=43): 63 (82) U/L | GGT, Mean (SD), Change to week 12 ([1]; n=44): 97 (178) U/L | Total bilirubin, Mean (SD), Change to week 12 ([1]; n=44): −3 (32) μmol/L | ALT, Mean (SD), Change to week 4 ([1]; n=46): 55 (71) U/L | AST, Mean (SD), Change to week 4 ([1]; n=46): 40 (67) U/L | GGT, Mean (SD), Change to week 4 ([1]; n=46): 79 (191) U/L | Total bilirubin, Mean (SD), Change to week 4 ([1]; n=46): −4 (19) μmol/L | ALT, Mean (SD), Baseline ([1]; n=52, before odevixibat): 173 (79) U/L | AST, Mean (SD), Baseline ([1]; n=52, before odevixibat): 164 (76) U/L | GGT, Mean (SD), Baseline ([1]; n=52, before odevixibat): 441 (329) U/L | Total bilirubin, Mean (SD), Baseline ([1]; n=52, before odevixibat): 56 (49) μmol/L | concurrent total bilirubin levels in the 4 patients with AST/ALT >3×BL ([1]; pooled): < 2 times the baseline level | patients with on-treatment elevations in ALT and total bilirubin that met Hy's law criteria ([1]; pooled): No patients | patients with potentially clinically significant elevations in AST and/or ALT to >3 times the baseline level ([1]; pooled, n=52): 4 patients | effect of dosage change on sBAs ([2]; 30 μg/kg/day, September to October 2021): associated with an increase in sBAs | drop in sBAs ([2]; Apr. 27, 2021 to May 31, 2021, 120 μg/kg/day started May 19, 2021): approximately 90% | sBAs after start of odevixibat ([2]; May 31, 2021, from 700 μmol/L on Apr. 27, 2021, 120 μg/kg/day): 69 µmol/L | bowel movements improved after ([2]; after starting odevixibat): 1 week | pruritus almost entirely disappeared within ([2]; after starting odevixibat): ≤ 2 weeks | pruritus stopped completely after ([2]; after starting odevixibat): 8 months | effect of dosage change on sBAs ([2]; back to 120 μg/kg/day in mid-December): corresponded with a drop in sBAs | adverse events ([2]; in vivo): did not experience any adverse events | sBA levels reached the normal range after ([2]; treatment duration): 8 months | shifts to low levels of vitamin E in patients with normal or high baseline levels ([3]; 4/29): 14% | shifts to low vitamin D levels in patients with normal or high baseline levels ([3]; 8/16): 50% | shifts from low or normal INR at baseline to high INR (low vitamin K) ([3]; 12/30): 40% | TEAE related to FSV levels: decreased vitamin A ([3]; 24 weeks): 1 n | TEAE related to FSV levels: decreased vitamin E ([3]; 24 weeks): 1 n | TEAE related to FSV levels: increased INR ([3]; 24 weeks): 1 n | incidence of INR increased (possible sequela of FSV deficiency) ([3]; 24 weeks): 3% | incidence of haematoma (possible sequela of FSV deficiency) ([3]; 24 weeks): 9% | patients shifted to high INR based on the normal range ([3]; 24 weeks): 12 patients | patients who shifted to high post-baseline INR and had TEAEs of potential sequelae of vitamin K deficiency ([3]; 24 weeks): 2 n | patients with clinically meaningful INR shifts (INR >1.2) ([3]; 24 weeks): 6 patients | shifts to low vitamin D levels ([3]; 24 weeks): 8 patients | shifts to low vitamin E levels ([3]; 24 weeks): 4 patients | incidence of possible sequelae of fat-soluble vitamin deficiency ([3]; 24 weeks, n=35): 14% | patients with TEAEs related to FSV levels (any FSV deficiency-related TEAE) ([3]; 24 weeks, n=35): 9% | fat-soluble vitamin deficiency TEAE refractory to clinically recommended vitamin supplementation ([3]; 24 weeks, vitamin D deficiency): 1 patients | changes from baseline in mean vitamin (FSV) levels or INR ([3]; baseline to last assessment): No clinically meaningful changes; also recorded: no clinically relevant changes | Vitamin A, shifts to low ([3]; baseline to lowest post-baseline value): 0/34 | patients shifted to low levels of vitamin A ([3]; during the study): No patients | Any FSV deficiency-related TEAE ([3]; n=35): 3 (9)^a n (%) | Any potential sequelae events ([3]; n=35): 5 (14) n (%) | FSV deficiency-related TEAE: INR increased ([3]; n=35): 1 (3) n (%) | FSV deficiency-related TEAE: Vitamin A decreased ([3]; n=35): 1 (3) n (%) | FSV deficiency-related TEAE: Vitamin E decreased ([3]; n=35): 1 (3) n (%) | Potential sequelae: Coagulopathy ([3]; n=35): 1 (3) n (%) | Potential sequelae: Contusion ([3]; n=35): 1 (3) n (%) | Potential sequelae: Epistaxis ([3]; n=35): 0 n (%) | Potential sequelae: Hematemesis ([3]; n=35): 1 (3) n (%) | Potential sequelae: Hematoma ([3]; n=35): 3 (9) n (%) | Potential sequelae: INR increased ([3]; n=35): 1 (3) n (%) | FSV deficiency-related TEAE: Vitamin D deficiency ([3]; n=35, refractory to supplementation): 1 (3)^b n (%) | patients with FSV deficiency TEAE refractory to clinically recommended vitamin supplementation ([3]; of 35 patients): 3%

From patent US20240173333A1, “Treating Alagille Syndrome (ALGS)” (priority 2022, published 2024)
